Where a name gives a salt, the structure may show the parent alone.
What was measured:
[1] = test system: Northern house mosquitoes (Culex pipiens); experiment: Long-term spatial repellency, static air repellency chamber, filter papers air-dried 5 hours; type: in vivo; conditions: Culex pipiens
Method: (§1) Northern house mosquitoes (Culex pipiens), a primary carrier of West Nile virus in eastern North America, were obtained from an established colony in the Medical Entomology Laboratory in the Department of Entomology at Iowa State University of Science and Technology, Ames Iowa. Mosquito rearing was performed by established protocols that are maintained by the Medical Entomology Laboratory. Repellency bioassays were performed with adult female mosquitoes that were 5-7 days post-emergent. […] Mosquitoes, prior to testing, were held at 27° C., 80% relative humidity, and on a 16:8 hr light:dark photoperiod.
(§2) Repellency bioassays were performed using a static air repellency chamber, which has been described in various publications by the Pesticide Toxicology Laboratory at Iowa State University of Science and Technology, Ames, Iowa Briefly, a 9-cm×60-cm glass tube was used to monitor the distribution of mosquitoes at 15 min, 30 min, 60 min, 90 min, 120 min, and 150 min after introducing mosquitoes into the static air repellency chamber. Treated filter papers were treated with 1 mL of 0.5% solution in acetone of the terpenoid analogs created in the lab and were exposed to ambient air for 5 hours before they were introduced into the spatial chamber for testing. This is a slight modification of the method described in Example 2, so as to evaluate the residual repellent character of these compounds on a treated surface after 5 hours. One end of the spatial chamber contained a treated filter paper, whereas the other (untreated) end of the spatial chamber was not treated with compound. Controls contained filter papers treated with acetone, the solvent used to make the 0.5% solutions. Each end of the repellency chamber was secured with a 100-mm Petri dish using celluloid tape. After securing the petri dishes with corresponding treated or untreated filter papers to the spatial chamber, mosquitoes were anesthetized with carbon dioxide, and approximately 20 female mosquitoes were placed into each repellency chamber for one replicate. The opening of the spatial repellency chamber was secured with celluloid tape to prevent their escape. Chambers were oriented in opposite directions from the previous replicate to account for any directional effect. Four replicates were performed for data analysis for both the control and treatment groups.
Data for spatial repellency, the percentage repellency, is reported at each of the respective time points in the figures and tables mentioned below in this disclosure. The percentage spatial repellency is the examination of the distribution of mosquitoes and is calculated using the following equation: […]

[2] = test system: Northern house mosquitoes (Culex pipiens); experiment: Short-term spatial repellency, static air repellency chamber; type: in vivo; conditions: for pest or weed control at 0.5 %: Culex pipiens
Method: as §1, with “that emerged” for “that were”, “days previously.” for “days post-emergent.”
as §2, with “Treated filter papers were treated with 1 mL of 0.5% solution in acetone of the terpenoid analogs created in the lab and were exposed to ambient air for 5 hours before they were introduced into the spatial chamber for testing. This is a slight modification of the method described in Example 2, so as to evaluate the residual repellent character of these compounds on a treated surface after 5 hours.” left out
Data for spatial repellency, the percentage repellency, is reported at each of the respective time points in the figures and tables mentioned below. The percentage spatial repellency is the examination of the distribution of mosquitoes and is calculated using the following equation: […]

[3] = 0.25 h, 1 mL of 0.5% solution in acetone, air-dried 5 hours, 15 min, read-out: Long-term Percentage repellency 15 min
[4] = 1.5 h, 1 mL of 0.5% solution in acetone, air-dried 5 hours, 90 min, read-out: Long-term Percentage repellency 90 min
[5] = 2.5 h, 1 mL of 0.5% solution in acetone, air-dried 5 hours, 150 min, read-out: Long-term Percentage repellency 150 min
[6] = 0.25 h, filter paper, 1 mL of 0.5% solution in acetone, air-dried 15 min, 15 min after introduction, read-out: Short-term Percentage repellency 15 min
[7] = 1.5 h, filter paper, 1 mL of 0.5% solution in acetone, air-dried 15 min, 90 min, read-out: Short-term Percentage repellency 90 min
[8] = 2.5 h, filter paper, 1 mL of 0.5% solution in acetone, air-dried 15 min, 150 min, read-out: Short-term Percentage repellency 150 min

Row | SMILES | pest or weed control at 0.5 % [1, 3] [%] | pest or weed control at 0.5 % [1, 4] [%] | pest or weed control at 0.5 % [1, 5] [%] | pest or weed control at 0.5 % [2, 6] [%] | pest or weed control at 0.5 % [2, 7] [%] | pest or weed control at 0.5 % [2, 8] [%] | further results
1 | Cc1ccc(C(C)C)c(OC=O)c1 [Compound 1107A, thymyl formate] | 25 | 17.5 | 22.5 | 35 | 80 | 75 | 
2 | O=C(OC/C=C/c1ccccc1)C1CCC1 [Compound 2039, cinnamyl cyclobutanecarboxylate] | 40 | 57.5 | 60 | 30 |  |  | 
3 | CC(C)=CCCC(C)CCOC(=O)C(F)F (centres unmarked) [Compound 2192, citronellyl difluoroacetate] |  |  |  |  |  |  | pest or weed control at 0.5 % ([1]; 0.25 h, read-out: Long-term Percentage repellency 15 min): 50%; pest or weed control at 0.5 % ([1]; 1.5 h, read-out: Long-term Percentage repellency 90 min): 72.5%; pest or weed control at 0.5 % ([1]; 2.5 h, read-out: Long-term Percentage repellency 150 min): 65%; pest or weed control at 0.5 % ([2]; 0.25 h, read-out: Short-term Percentage repellency 15 min): 42.5%; pest or weed control at 0.5 % ([2]; 1.5 h, read-out: Short-term Percentage repellency 90 min): 95%; pest or weed control at 0.5 % ([2]; 2.5 h, read-out: Short-term Percentage repellency 150 min): 95%
4 | CC(C)=CCCC(C)CCOC(=O)c1ccco1 (centres unmarked) [Compound 2186, citronellyl 2-furoate] | 25 | 42.5 | 40 |  |  |  | Short-term repellency at low concentration, in words ([2]; filter paper treated with 0.1%, FIG. 6): significant levels of repellency
5 | Cc1ccc(C(C)C)cc1OC=O [Compound 1107B, carvacryl formate] | 30 | 37.5 | 42.5 |  |  |  | 
6 | C#CCOC(=O)CC(C)CCC=C(C)C (centres unmarked) [Compound 1060D, propargyl citronellate] | 15 | 62.5 | 77.5 | 60 | 72.5 | 70 | 
7 | CC(C)=CCC/C(C)=C/C(=O)OCC1CC1 [Compound 2020, cyclopropylmethyl geranate] | 40 | 45 | 40 |  |  |  | 
8 | Cc1ccc(C(C)C)c(OC(=O)C2CC2)c1 [Compound 1055A, thymol cyclopropanecarboxylate] | 0 | 32.5 | 52.5 | -10 | 87.5 | 95 | Short-term spatial repellency, in words ([2]; 1 mL of 0.5% solution in acetone): very effective spatial repellent; Short-term percentage repellency 30 min ([2]; 1 mL of 0.5% solution in acetone, 30 minutes): 58%
9 | CC(C)=CCCC(C)CCOC(=O)C1CCCC1 (centres unmarked) [Compound 2119, citronellyl cyclopentanecarboxylate] | 20 | 55 | 45 | -1.25 | 33.8 | 52.5 | 
10 | CC(C)=CCCC(C)CCOC(=O)CC(C)C (centres unmarked) [Compound 1034B, citronellyl isovalerate] | 30 | 30 | 32.5 | 17.5 | 77.5 | 82.5 | 
11 | Cc1ccc(C(C)C)c(OC(=O)C2CCCCC2)c1 [Compound 2085, thymyl cyclohexanecarboxylate] | 17.5 | 35 | 50 | 17.5 | 35 | 50 | 
12 | CC(C)=CCCC(C)CCOC(=O)C1CC(=O)C1 (centres unmarked) [Compound 3067, citronellyl 3-oxocyclobutanecarboxylate] | 12.5 | 0 | 25 | 47.5 | 60 | 62.5 | 
13 | C=C(C)C1CC=C(COC(=O)C2CCC2)CC1 (centres unmarked) [Compound 2033, perillyl cyclobutanecarboxylate] | 27.5 |  |  |  |  |  | 
14 | CC(C)=CCCC(C)CC(=O)OCCO (centres unmarked) [Compound 1052S3, 2-hydroxyethyl citronellate] | 37.5 | 65 | 75 |  |  |  | 

From patent publication US11485701B2, “Insect repellent compounds and compositions, and methods thereof” (Iowa State University Research Foundation, Inc., priority 2016, dated 2022)
